Results: patent publication US7462600B2, “Macrolides” (Pfizer Inc, priority 2004, dated 2008)
Converted amounts (≈) assume the structure as drawn. Where two headings read alike, the source gives them in different places.

What was measured:
Format in all cases: cell-based
[1] = tested on: Streptococcus pyogenes 1079; assay: MIC, microtiter broth dilution (NCCLS M100-S14), S. pyogenes 1079 (ermB)
Protocol: (§1) The assay described herein includes a panel of bacterial strains assembled to include a variety of target pathogenic species, including representatives of macrolide resistance mechanisms that have been characterized. In many cases, both the macrolide-susceptible parent strain and the macrolide-resistant strain derived from it are available to provide a more accurate assessment of the compound's ability to circumvent the resistance mechanism. The assay is performed in microtiter trays and interpreted according to Performance Standards for Antimicrobial Susceptibility Testing; 14th Informational Supplement (M100-S14), published by The National Committee for Clinical Laboratory Standards (NCCLS) guidelines; the MIC is used to compare strains. Compounds are initially dissolved in DMSO as 40 mg/ml stock solutions.

[2] = tested on: Streptococcus pneumoniae 1095; details: microtiter broth dilution
Protocol: as §1

[3] = tested on: Streptococcus pneumoniae 1175; details: microtiter broth dilution
Protocol: as §1

[4] = tested on: Streptococcus pneumoniae 1016; assay: MIC, microtiter broth dilution (NCCLS M100-S14), S. pneumoniae 1016 (susceptible)
Protocol: as §1

[5] = tested on: Haemophilus influenzae 1218; assay: MIC, microtiter broth dilution (NCCLS M100-S14), H. influenzae 1218 (susceptible)
Protocol: as §1

CCC1OC(=O)C(C)C(=O)C(C)C(OC2OC(C)CC(N(C)C)C2O)C(C)(OC)CC(C)C(=O)C(C)C2N(C3CN(S(=O)(=O)c4ccc(C)c5nccnc45)C3)C(=O)OC12C (centres unmarked) [Example 3.114, 3-descladinosyl-11,12-dideoxy-6-O-methyl-3-oxo-12,11-(oxycarbonyl-(1-(8-methylquinoxaline-5-sulfonyl)-azetidin-3-yl)-imino)-erythromycin A]
MIC S. pyogenes 1079 ([1]; Streptococcus pyogenes 1079): 1 µg/mL (≈ 1.14 µM) | MIC S. pneumo. 1095 ([2]; Streptococcus pneumoniae 1095): 0.125 µg/mL (≈ 0.143 µM) | MIC S. pneumo. 1175 ([3]; Streptococcus pneumoniae 1175): <0.063 µg/mL | MIC S. pneumo. 1016 ([4]; Streptococcus pneumoniae 1016): <0.063 µg/mL | MIC H. influenzae 1218 ([5]; Haemophilus influenzae 1218): 0.25 µg/mL (≈ 0.286 µM)

CCC1OC(=O)C(C)C(=O)C(C)C(OC2OC(C)CC(N(C)C)C2O)C(C)(OC)CC(C)C(=O)C(C)C2N(C3CN(Cc4c(Cl)cnc5ccccc45)C3)C(=O)OC12C (centres unmarked) [Example 1.107, 3-descladinosyl-11,12-dideoxy-6-O-methyl-3-oxo-12,11-(oxycarbonyl-(1-(3-chloroquinoline-4-methyl)-azetidin-3-yl)-imino)erythromycin A]
MIC S. pyogenes 1079 ([1]; Streptococcus pyogenes 1079): 0.25 µg/mL (≈ 0.296 µM) | MIC S. pneumo. 1095 ([2]; Streptococcus pneumoniae 1095): <0.063 µg/mL | MIC S. pneumo. 1175 ([3]; Streptococcus pneumoniae 1175): <0.063 µg/mL | MIC S. pneumo. 1016 ([4]; Streptococcus pneumoniae 1016): <0.063 µg/mL | MIC H. influenzae 1218 ([5]; Haemophilus influenzae 1218): 1 µg/mL (≈ 1.19 µM)

CCC1OC(=O)C(C)C(=O)C(C)C(OC2OC(C)CC(N(C)C)C2O)C(C)(OC)CC(C)C(=O)C(C)C2N(C3CN(S(=O)(=O)c4ccc(F)c(C#N)c4)C3)C(=O)OC12C (centres unmarked) [Example 3.77, 3-descladinosyl-11,12-dideoxy-6-O-methyl-3-oxo-12,11-(oxycarbonyl-(1-(3-cyano-4-fluorobenzenesulfonyl)-azetidin-3-yl)-imino)-erythromycin A]
MIC S. pyogenes 1079 ([1]; Streptococcus pyogenes 1079): 8 µg/mL (≈ 9.4 µM) | MIC S. pneumo. 1095 ([2]; Streptococcus pneumoniae 1095): <0.06 µg/mL | MIC S. pneumo. 1175 ([3]; Streptococcus pneumoniae 1175): <0.06 µg/mL | MIC S. pneumo. 1016 ([4]; Streptococcus pneumoniae 1016): <0.06 µg/mL | MIC H. influenzae 1218 ([5]; Haemophilus influenzae 1218): 1 µg/mL (≈ 1.18 µM)

CCC1OC(=O)C(C)C(=O)C(C)C(OC2OC(C)CC(N(C)C)C2O)C(C)(OC)CC(C)C(=O)C(C)C2N(C3CN(Cc4c(C)ccc5ccccc45)C3)C(=O)OC12C (centres unmarked) [Example 1.92, 3-descladinosyl-11,12-dideoxy-6-O-methyl-3-oxo-12,11-(oxycarbonyl-(1-(2-methylnaphthalene-1-methyl)-azetidin-3-yl)-imino)erythromycin A]
MIC S. pyogenes 1079 ([1]; Streptococcus pyogenes 1079): 2 µg/mL (≈ 2.43 µM) | MIC S. pneumo. 1095 ([2]; Streptococcus pneumoniae 1095): 0.125 µg/mL (≈ 0.152 µM) | MIC S. pneumo. 1175 ([3]; Streptococcus pneumoniae 1175): <0.063 µg/mL | MIC S. pneumo. 1016 ([4]; Streptococcus pneumoniae 1016): <0.063 µg/mL | MIC H. influenzae 1218 ([5]; Haemophilus influenzae 1218): 2 µg/mL (≈ 2.43 µM)

CCC1OC(=O)C(C)(F)C(=O)C(C)C(OC2OC(C)CC(N(C)C)C2O)C(C)(OC)CC(C)C(=O)C(C)C2N(CC3CCCN3C(=O)c3nc4ccccc4[nH]3)C(=O)OC12C [Example 10.27, 3-descladinosyl-11,12-dideoxy-2-fluoro-6-O-methyl-3-oxo-12,11-(oxycarbonyl-(1-(1H-benzo[d]imidazole-2-carboxyl)-((R)-pyrrolidin-2-yl)-methyl)-imino)-erythromycin A]
MIC S. pyogenes 1079 ([1]; S. pyogenes 1079 (ermB)): 8 µg/mL (≈ 9.32 µM) | MIC S. pneumo. 1095 ([2]; S. pneumoniae 1095 (ermB)): <0.06 µg/mL | MIC S. pneumo. 1175 ([3]; S. pneumoniae 1175 (mefA)): 0.25 µg/mL (≈ 0.291 µM) | MIC S. pneumo. 1016 ([4]; S. pneumoniae 1016 (susceptible)): <0.06 µg/mL | MIC H. influenzae 1218 ([5]; H. influenzae 1218 (susceptible)): 2 µg/mL (≈ 2.33 µM)

CCC1OC(=O)C(C)C(=O)C(C)C(OC2OC(C)CC(N(C)C)C2O)C(C)(OC)CC(C)C(=O)C(C)C2N(CC3CN(C(=O)c4ccc5ncccc5c4)C3)C(=O)OC12C (centres unmarked) [4.33]
MIC S. pyogenes 1079 ([1]; Streptococcus pyogenes 1079): 64 µg/mL (≈ 76.5 µM) | MIC S. pneumo. 1095 ([2]; Streptococcus pneumoniae 1095): 1 µg/mL (≈ 1.19 µM) | MIC S. pneumo. 1175 ([3]; Streptococcus pneumoniae 1175): 0.25 µg/mL (≈ 0.299 µM) | MIC S. pneumo. 1016 ([4]; Streptococcus pneumoniae 1016): <0.06 µg/mL | MIC H. influenzae 1218 ([5]; Haemophilus influenzae 1218): 1 µg/mL (≈ 1.19 µM)

CCC1OC(=O)C(C)C(=O)C(C)C(OC2OC(C)CC(N(C)C)C2O)C(C)(OC)CC(C)C(=O)C(C)C2N(C3CN(Cc4cccc(C#N)c4)C3)C(=O)OC12C (centres unmarked) [Example 1.15, 3-cyanobenzyl]
MIC S. pyogenes 1079 ([1]; Streptococcus pyogenes 1079): >64.00 µg/mL | MIC S. pneumo. 1095 ([2]; Streptococcus pneumoniae 1095): <0.06 µg/mL | MIC S. pneumo. 1175 ([3]; Streptococcus pneumoniae 1175): 0.25 µg/mL (≈ 0.319 µM) | MIC S. pneumo. 1016 ([4]; Streptococcus pneumoniae 1016): <0.06 µg/mL | MIC H. influenzae 1218 ([5]; Haemophilus influenzae 1218): 0.25 µg/mL (≈ 0.319 µM)
